According to publication PMC12523303, “Multi-Fused S,N-Heterocyclic Compounds for Targeting α-Synuclein Aggregates” (Cells, 2025):

Tests used:
[1] = target: T1, α-synuclein (α-syn) aggregates in PD brain homogenates (Homo sapiens, UniProt P37840); experiment: Two point screening assay (30 nM and 300 nM) vs [3H]asyn-44 in human PD brain homogenates; assay type: binding; conditions: for % [3H]asyn-44 remaining at 30 nM: 30 nM competitor; for % [3H]asyn-44 remaining at 300 nM: 300 nM competitor
T1 construct: Anterior cingulate cortex tissue from a Parkinson’s disease (PD) case; tissue Banner Sun Health Research Institute (Dr. Thomas Beach); host or cells: post-mortem human PD anterior cingulate cortex homogenate
Experimental: Screening assays for the test compounds were performed at two concentrations—30 nM and 300 nM—using unlabelled competitors in human PD brain homogenates against [^3H]asyn-44 as previously described. […] Each assay was conducted in triplicate for both concentrations to ensure reproducibility and statistical reliability.

[2] = target: T1, α-synuclein (α-syn) aggregates in PD brain homogenates; experiment: In vitro competition (Ki) assay vs [3H]asyn-44 in PD brain homogenates; assay type: binding; conditions: 1 nM [3H]asyn-44
Experimental: Anterior cingulate cortex tissue from a Parkinson’s disease (PD) case was generously provided by Dr. Thomas Beach at the Banner Sun Health Research Institute in Arizona, USA. […] Preparation of the frozen blocks for binding assays followed previously established protocols.
The equilibrium inhibition constants (Ki) for the unlabelled compounds were measured against [^3H]asyn-44 using our previously reported procedure. For these assays, frozen aliquots of homogenized human brain tissue (stored at −80 °C) were used. Homogenates were prepared at 10 mg/mL in phosphate-buffered saline, then diluted with 50 mM Tris buffer (pH 7.0) to a working concentration of 1 mg/mL.
Unlabeled competitor compounds were initially dissolved in DMSO at 400 μM, then diluted with Tris buffer to 20 μM, resulting in a 5% DMSO concentration. A serial dilution series (ranging from 6 μM to 4 nM) was prepared in the same 5% DMSO/Tris buffer solution to maintain consistent solvent conditions throughout the assay.
To perform the binding assay, 50 μL of the appropriately diluted competitor solution was mixed with 50 μL of [^3H]asyn-44 (1 nM final concentration) and 800 μL of Tris buffer containing 20% ethanol and 0.1% bovine serum albumin (BSA). Then, 100 μL of the 1 mg/mL brain homogenate was added, bringing the final tissue concentration to 100 μg/mL. The reaction mixtures were incubated at room temperature for 60 min before filtration through Whatman GF/B glass fibre filters using a Brandel M-24R cell harvester (Gaithersburg, MD, USA). Filters were washed three times with 3 mL of Tris buffer containing 20% ethanol and 0.1% BSA.
After washing, retained radioactivity was measured using CytoScint-ES scintillation fluid following thorough vortexing. Specific binding was calculated by correcting for nonspecific binding (as described later), and the amount of bound radioligand was derived from the filter-associated radioactivity and the molar activity of the tritiated compound.

Row | SMILES | % [3H]asyn-44 remaining at 30 nM [1] | % [3H]asyn-44 remaining at 300 nM [1] | Ki [2]
1 | O=C1c2ccc(-c3ccc(N4CCC(F)C4)nc3)nc2CN1c1cccnc1 (stereo not shown) [LMD-019] | 66% | 27% | 
2 | FC1CCN(c2cnc(-c3ccc4sccc4n3)cn2)CC1 [LMD-036] | 65% | 23% | 
3 | Cn1ccc(-c2cc3nn(-c4cc(N5CCC(F)CC5)ncn4)cc3s2)n1 [LMD-074] | 55% | 45% | 
4 | FC1CCN(c2cnc(-c3ccc4sc(-c5cncs5)cc4n3)cn2)CC1 [LMD-062] | 43% | 32% | 
5 | FC1CCN(c2cnc(-n3cc4sc(-c5cncs5)cc4n3)cn2)C1 (stereo not shown) [LMD-029] | 34% | 12% | 0.013 µM
6 | Cn1ccc(-c2cc3nn(-c4ccc(N5CCC(F)C5)nn4)cc3s2)n1 (stereo not shown) [LMD-067] | 86% | 28% | 
7 | Cn1ccc(-c2cc3nc(-c4cnc(N5CCC(F)CC5)cn4)ccc3s2)n1 [LMD-060] | 48% | 29% | 
8 | Cn1cnc(N2Cc3nc(-c4ccc(N5CCC(F)C5)nc4)ccc3C2=O)c1 (stereo not shown) [LMD-023] | 99% | 50% | 
9 | Cn1ccc(-c2csc3ccc(-c4ccc(N5CCC(F)C5)nc4)nc23)n1 (stereo not shown) [LMD-063] | 64% | 33% | 
10 | Cn1ccc(-c2cc3nn(-c4cnc(N5CCC(F)C5)cn4)cc3s2)n1 (stereo not shown) [LMD-054] | 58% | 15% | 0.024 µM
11 | FC1CCN(c2ccc(-n3cc4sc(-c5cncs5)cc4n3)cn2)C1 (stereo not shown) [LMD-028] | 81% | 38% | 
12 | FC1CCN(c2ccnc(-n3cc4sc(-c5cccnc5)cc4n3)n2)C1 (stereo not shown) [LMD-061] | 56% | 29% | 
13 | FC1CCC(c2cnc(-n3cc4sccc4n3)cn2)C1 (stereo not shown) [LMD-031] | 66% | 24% | 
14 | F[C@@H]1CCN(c2cnc(-n3cc4sc(-c5cccnc5)cc4n3)cn2)C1 [LMD-033] | 51% | 33% | 
15 | O=C1NCc2nc(-c3ccc(N4CCC(F)C4)nc3)ccc21 (stereo not shown) [LMD-064] | 46% | 26% | 
16 | F[C@@H]1CCN(c2cnc(-c3ccc4sc(-c5cncs5)cc4n3)cn2)C1 [LMD-014] | 45% | 20% | 
17 | Cn1ccc(-c2cc3c(cnn3-c3ccc(N4CCC(F)C4)nn3)s2)n1 (stereo not shown) [LMD-072] | 48% | 33% | 
18 | FC1CCN(c2cnc(-c3ccc4sccc4n3)cn2)C1 (stereo not shown) [LMD-039] | 57% | 27% | 
19 | Cn1ccc(N2Cc3nc(-c4cnc(N5CCC(F)C5)cn4)ccc3C2=O)n1 (stereo not shown) [LMD-017] | 43% | 25% | 
20 | Cn1ccc(-c2cc3nn(-c4nccc(N5CCC(F)CC5)n4)cc3s2)n1 [LMD-075] | 41% | 19% | 

Row | SMILES | % [3H]asyn-44 remaining at 30 nM [1] | % [3H]asyn-44 remaining at 300 nM [1] | Ki [2]
21 | FC1CCN(c2ccnc(-n3ncc4sc(-c5cccnc5)cc43)n2)C1 (stereo not shown) [LMD-070] | 43% | 22% | 
22 | Cn1ccc(-c2cc3nc(-c4cnc(N5CCC(F)C5)cn4)ccc3s2)n1 (stereo not shown) [LMD-013] | 87% | 58% | 
23 | CC1CCN(c2ncc(-c3ccc4sc(-c5cccnc5)cc4n3)cc2F)C1 (stereo not shown) [LMD-001] | 72% | 39% | 
24 | FC1CCN(c2cc(Cl)ncc2-c2ccc3sc(-c4cccnc4)cc3n2)C1 (stereo not shown) [LMD-049] | 89% | 35% | 
25 | FC1CCN(c2ccc(-c3cc4nc(-c5cccnc5)ccc4s3)cn2)C1 (stereo not shown) [LMD-024] | 72% | 13% | 0.054 µM
26 | FC1CCN(c2cnc(-c3ccc4sc(-c5cccnc5)cc4n3)cn2)C1 (stereo not shown) [LMD-009] | 45% | 17% | 
27 | Fc1cc(-c2ccc3sc(-c4cccnc4)cc3n2)cnc1N1CCCC1 [LMD-002] | 57% | 21% | 
28 | FC1CCN(c2cc(-n3cc4sc(-c5cccnc5)cc4n3)ncn2)CC1 [LMD-068] | 50% | 34% | 
29 | Cn1ccc(-c2cc3nc(-c4ccc(N5CCC(F)C5)nc4)ccc3s2)n1 (stereo not shown) [LMD-005] | 112% | 64% | 
30 | COc1cncc(-c2cc3nc(-c4cnc(N5CCC(F)C5)cn4)ccc3s2)c1 (stereo not shown) [LMD-015] | 46% | 21% | 
31 | Cn1ccc(-c2cc3c(cnn3-c3nccc(N4CCC(F)CC4)n3)s2)n1 [LMD-076] | 64% | 22% | 
32 | FC1CCN(c2ccc(-c3ccc4scc(Br)c4n3)cn2)C1 (stereo not shown) [LMD-040] | 54% | 28% | 
33 | FC1CCN(c2ccc(-c3csc4ccc(-c5cccnc5)nc34)cn2)C1 (stereo not shown) [LMD-026] | 56% | 25% | 
34 | Cn1ccc(N2Cc3nc(-c4ccc(N5CCC(F)C5)nc4)ccc3C2=O)n1 (stereo not shown) [LMD-016] | 91% | 48% | 
35 | Cn1ccc(-c2cc3c(cnn3-c3cc(N4CCC(F)CC4)ncn3)s2)n1 [LMD-077] | 67% | 20% | 
36 | FC1CCN(c2cc(-n3ncc4sc(-c5cccnc5)cc43)ncn2)C1 (stereo not shown) [LMD-073] | 71% | 29% | 
37 | FC1CCN(c2ccc(-c3ccc4scc(-c5cccnc5)c4n3)cn2)C1 (stereo not shown) [LMD-041] | 77% | 13% | 0.058 µM
38 | FC1CCN(c2ccnc(-n3cc4sc(-c5cccnc5)cc4n3)n2)CC1 [LMD-069] | 49% | 31% | 
39 | Cn1ccc(-c2cc3nn(-c4cnc(N5CCC(F)CC5)cn4)cc3s2)n1 [LMD-066] | 76% | 51% | 
